From patent US7750017B2, “Heterocycles” (Bayer Schering Pharma Aktiengesellschaft, priority 2004, dated 2010)
pIC50: −log10 of the molar value.

Experiments:
[1] = tested on: A431 cells [human epidermoid carcinoma, overexpressing HER1 (EGFR, ErbB1)]; assay: In vitro tumor cell proliferation assay (Cell Titer-Glo luminescent cell viability), A431 cells; format: cell-based; settings: A-431, 72 h, 72 hours of drug exposure, Cell Titer-Glo readout, read-out: IC50, anti-proliferative activity in A431 cells
[2] = tested on: BT474 [human breast carcinoma, overexpressing HER2 (ErbB2)]; assay: In vitro tumor cell proliferation assay (Cell Titer-Glo luminescent cell viability), BT474 cells; format: cell-based; settings: BT-474, 72 h, 72 hours of drug exposure, Cell Titer-Glo readout, read-out: IC50, anti-proliferative activity in BT474 cells

Row | pIC50 [1] | pIC50 [2] | SMILES
1 | ≥ 4.30 | ≥ 5.30 | O=C(Cc1ccc2c(c1)sc1ncnc(Nc3ccc(OCc4cscn4)c(Cl)c3)c12)NN1CCOCC1 [Example 144, 2-(4-{[3-chloro-4-(1,3-thiazol-4-ylmethoxy)phenyl]amino}[1]benzothieno[2,3-d]pyrimidin-7-yl)-N-morpholin-4-ylacetamide]
2 | ≥ 4.30 | ≥ 5.30 | O=C(Cc1ccc2c(c1)sc1ncnc(Nc3ccc(OCc4cscn4)c(Cl)c3)c12)NCCOCCO [Example 145, 2-(4-{[3-chloro-4-(1,3-thiazol-4-ylmethoxy)phenyl]amino}[1]benzothieno[2,3-d]pyrimidin-7-yl)-N-[2-(2-hydroxyethoxy)ethyl] acetamide]
3 | ≥ 4.30 | ≥ 6.30 | CCN1CCN(CCNC(=O)Cc2ccc3c(c2)sc2ncnc(Nc4ccc(OCc5cscn5)c(Cl)c4)c23)CC1 [Example 146, 2-(4-{[3-chloro-4-(1,3-thiazol-4-ylmethoxy)phenyl]amino}[1]benzothieno[2,3-d]pyrimidin-7-yl)-N-[2-(4-ethylpiperazin-1-yl)ethyl] acetamide]
